Columns and labels:
[1] = tested on: phosphorylated Akt; test: Level of phosphorylated Akt by western blotting in primary mouse hepatocytes treated with EphB4 inhibitor; assay type: cell-based; settings: LCA 10 μM and 20 μM overnight, 10 nM insulin 20 min before collection, western blotting (FIG. 2C)
Method: After the liver tissue was fully digested, it was suspended with DMEM medium, flew through a cell sieve with a diameter of 70 μm, and was centrifugated, thereby the primary hepatocytes were obtained. The cells were resuspended in complete culture medium and dispersed into a petri dish or plate. After the cells were attached, they were treated with LCA (10 μM and 20 μM) overnight.

[2] = tested on: flag-InsR; test: Protein level of flag-InsR by Western blotting in HEK293T cells co-expressing insulin receptor and EphB4, treated with degradation pathway inhibitors; assay type: cell-based; settings: HEK293T cells co-expressing flag-InsR and EphB4-HA; ammonium chloride 5 mM, chloroquine 10 μM, 8 h; Western blotting (FIG. 2B)
Method: GFP was co-transfected as a reference for foreign proteins. The cells were treated with proteasome degradation pathway inhibitor MG132 (10 μM), lysosome degradation pathway inhibitor ammonium chloride (5 mM) and chloroquine (10 μM) for 8 h.

Row | Structure (SMILES) | level of phosphorylated Akt [1] | protein level of flag-InsR (effect on EphB4-promoted insulin receptor degradation) [2]
1 | C[C@H](CCC(=O)O)[C@H]1CC[C@H]2[C@@H]3CC[C@@H]4C[C@H](O)CC[C@]4(C)[C@H]3CC[C@]12C [LCA, 3α-hydroxy-5β-cholanoic acid] | increase the level of phosphorylated Akt | –
2 | Cl.N [ammonium chloride, Ammonium chloride] | – | partially rescue the promoting effect of EphB4 on insulin receptor degradation to some extent
3 | CCN(CC)CCCC(C)Nc1ccnc2cc(Cl)ccc12 (stereo not drawn) [chloroquine] | – | partially rescue the promoting effect of EphB4 on insulin receptor degradation to some extent
